# Test system: gIII under o-RBS variants
# Assay: Two-stage selection of o-RBS/o-antiRBS pairs (phage titers post infection)
# Details: seven o-RBS variants with o-antiRBSlib SPs
substance,measurement,value
"o-RBSH3: orthogonal ribosome binding site, SEQ ID NO: 7 (DNA UUUCCAAUAUACAGAUCUAUG; listed as RNA, chemistry not fully specified)",propagation (phage titers) post infection,highest titers

# Source: US20240344062A1, “RIBOSOMAL RNA (rRNA) VARIANTS […] PROTEIN PRODUCTION CAPABILITIES” (THE BROAD INSTITUTE, INC., priority 2021, published 2024)
